Data taken from patent publication US20220168309A1 (F-STAR THERAPEUTICS, INC., priority 2019, published 2022).

Target: STING (Homo sapiens, UniProt Q86WV6)
Assay: STING antagonist activity, cell-based ISG54 promoter-reporter luciferase measurement of IRF activity (THP-1 dual / RAW-ISG cells)
Details: Antagonist Activity of Exemplary Compounds; cell line and agonist not given
Method: THP-1 dual cells (InvivoGen) were cultured under 5% CO2 at 37° C. in RPMI containing 10% fetal bovine serum (FBS), 100 IU mL-1 penicillin and 100 μg mL-1 streptomycin. RAW-ISG cells (InvivoGen) were cultured under 5% CO2 at 37° C. in DMEM containing 10% fetal bovine serum (FBS), 100 IU mL-1 penicillin and 100 μg mL-1 streptomycin. THP-1 dual cells were seeded into the 96 well assay plate on the day of assay whereas RAW cells were seeded into the 96 well assay plate 18 hours before the assay.
(§1) 50,000 cells seeded in a 96-well flat bottom white assay plate were treated with different concentrations (10 uM to 0.01 uM) of compounds for 1 h followed by STING induction with either 30 nM SB 11285 or 10 ug/mL 2′-3′ cGAMP. The cells were then incubated for 20 hours @ 37° C. in CO2 incubator before measuring IRF activation by using Quanti-Luc (InvivoGen). The % inhibition was calculated as 100−{[(luminescence of COI treated well/luminescence of non-COI treated well)/100]×100}. IC50 was calculated by plotting in Xlfit.
as §1, with “1 μM” for “30 nM”
THP1-Dual-WT cells (InvivoGen) were plated into 96-well flat bottom plate at 5×10^4 cells/140 μL/well in triplicate. Cells were then treated with diluted antagonist compounds at 10 μL/well for 1 h, followed by treatment with compounds or 2′3′-cGAMP/lipo mixture for 18 h. The levels of IRF activity were determined using Quanti-luc (InvivoGen) and calculated against IRF activity in DMSO-treated cells. IC50 and CC50 values were calculated using Xlfit.

STING, sequence (Q86WV6 whole entry): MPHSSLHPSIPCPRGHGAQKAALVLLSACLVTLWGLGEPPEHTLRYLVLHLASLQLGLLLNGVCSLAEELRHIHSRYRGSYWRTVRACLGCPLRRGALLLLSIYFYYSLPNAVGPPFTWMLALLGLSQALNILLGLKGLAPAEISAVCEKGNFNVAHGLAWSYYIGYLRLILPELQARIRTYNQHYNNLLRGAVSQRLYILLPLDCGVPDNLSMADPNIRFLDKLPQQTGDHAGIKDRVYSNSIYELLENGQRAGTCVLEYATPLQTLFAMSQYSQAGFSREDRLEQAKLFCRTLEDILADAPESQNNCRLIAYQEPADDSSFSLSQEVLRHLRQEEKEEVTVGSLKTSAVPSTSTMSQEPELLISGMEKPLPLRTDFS

Q: Which IC50 does the source give for CCN(CC)c1nc2nc(Cl)nc(Cl)c2n1CCCCCCCCCCCCCCCC(=O)OC [Compound 117, methyl 16-(2,6-dichloro-8-(diethylamino)-7H-purin-7-yl)hexadecanoate] here?
A: 5000 to 10000 nM

Same assay, conditions: Antagonist Activity of Exemplary Compounds; cell line and agonist not given; read-out: IC50

Q: How did the IC50 turn out when Cc1nc2c(Cl)nc(Cl)nc2n1CCCCCCCCCCCCCCCc1nnnn1C [Compound 100, 2,6-dichloro-8-methyl-9-(15-(1-methyl-1H-tetrazol-5-yl)pentadecyl)-9H-purine] was run?
A: 5000 to 10000 nM

Q: With Cc1nc2nc(Cl)nc(Cl)c2n1CCCCCCCCCCCCCCCc1nnnn1C [Compound 101, 2,6-dichloro-8-methyl-7-(15-(1-methyl-1H-tetrazol-5-yl)pentadecyl)-7H-purine] as the compound, how does the IC50 read?
A: 1 to 1000 nM

Q: Which IC50 does the source give for Cc1nc2nc(Cl)nc(Cl)c2n1CCCCCCCCCCN1CCOCC1 [Compound 102, 4-(10-(2,6-dichloro-8-methyl-7H-purin-7-yl)decyl)morpholine] here?
A: 1 to 1000 nM

Q: Which IC50 does the source give for Cc1nc2nc(Cl)nc(Cl)c2n1C/C=C/Cn1c(C)nc2nc(Cl)nc(Cl)c21 [Compound 103, (E)-1,4-bis(2,6-dichloro-8-methyl-7H-purin-7-yl)but-2-ene] here?
A: 5000 to 10000 nM

Q: For Cc1nc2nc(Cl)nc(Cl)c2n1CCCCCCCCCCCCCCCC(=O)OC[C@H](O)CO [Compound 104, (R)-2,3-dihydroxypropyl 16-(2,6-dichloro-8-methyl-7H-purin-7-yl)hexadecanoate], which IC50 is on record?
A: 1 to 1000 nM

Q: For Cc1nc2nc(Cl)nc(Cl)c2n1CCCCCCCCCCCCCCCCN1CCOCC1 [Compound 105, 4-(16-(2,6-dichloro-8-methyl-7H-purin-7-yl)hexadecyl)morpholine], which IC50 is on record?
A: 1 to 1000 nM

Q: With Cc1nc2nc(Cl)nc(Cl)c2n1CCCCCCCCCCCCCCCC(=O)OC(CO)CO [Compound 106, 1,3-dihydroxypropan-2-yl 16-(2,6-dichloro-8-methyl-7H-purin-7-yl)hexadecanoate] as the compound, how does the IC50 read?
A: 1000 to 5000 nM

Q: For Cc1nc2nc(Cl)nc(Cl)c2n1CCCCCCCCCCCCCCCC(=O)OC[C@@H](O)CO [Compound 107, (S)-2,3-dihydroxypropyl 16-(2,6-dichloro-8-methyl-7H-purin-7-yl)hexadecanoate], which IC50 is on record?
A: 1000 to 5000 nM

Q: Which IC50 does the source give for COC(=O)CCCCCCCCCCCCCCCn1c(C)nc2nc(Cl)nc(OCCN(C)C)c21 [Compound 108, methyl 16-(2-chloro-6-(2-(dimethylamino)ethoxy)-8-methyl-7H-purin-7-yl)hexadecanoate] here?
A: 1000 to 5000 nM

Q: For Cc1nc2nc(Cl)nc(S(C)(=O)=O)c2n1CCCCCCCCCCCCCCCC(=O)OC(C)C [Compound 109, isopropyl 16-(2-chloro-8-methyl-6-(methylsulfonyl)-7H-purin-7-yl)hexadecanoate], which IC50 is on record?
A: 1 to 1000 nM

Q: Which IC50 does the source give for Cc1nc2nc(Cl)nc(Cl)c2n1CCCCCCCCCCCCCCCCP(=O)(O)O [Compound 110, (16-(2,6-dichloro-8-methyl-7H-purin-7-yl)hexadecyl)phosphonic acid] here?
A: > 20000 nM

Q: Cc1nc2nc(Cl)nc(S(=O)(=O)C(C)C)c2n1CCCCCCCCCCCCCCCCO [Compound 111, 16-(2-chloro-6-(isopropylsulfonyl)-8-methyl-7H-purin-7-yl)hexadecan-1-ol] was tested. Which IC50 did it give?
A: 1 to 1000 nM

Q: CC1Nc2nc(Cl)nc(S(=O)(=O)C(C)C)c2N1CCCCCCCCCCCCCCCCO (stereo not drawn) [Compound 112, 16-(2-chloro-6-(isopropylsulfonyl)-8-methyl-8,9-dihydro-7H-purin-7-yl)hexadecan-1-ol] was tested. Which IC50 did it give?
A: 1000 to 5000 nM

Q: How did the IC50 turn out when Cc1nc2nc(Cl)nc(Cl)c2n1CCCCCCCCCCN1CCN(C)CC1 [Compound 113, 2,6-dichloro-8-methyl-7-(10-(4-methylpiperazin-1-yl)decyl)-7H-purine] was run?
A: 1000 to 5000 nM

Q: With COC(=O)CCCCCCCCCCCCCCCn1c(CO)nc2nc(Cl)nc(S(=O)(=O)C(C)C)c21 [Compound 114, Methyl 16-(2-chloro-8-(hydroxymethyl)-6-(isopropylsulfonyl)-7H-purin-7-yl)hexadecanoate] as the compound, how does the IC50 read?
A: 1 to 1000 nM

Q: For Cc1nc2nc(Cl)nc(S(=O)(=O)C(C)C)c2n1CCCCCCCCCC[N+]1([O-])CCOCC1 [Compound 115, 4-(10-(2-chloro-6-(isopropylsulfonyl)-8-methyl-7H-purin-7-yl)decyl)-4-(11-oxidanyl)-4l4-morpholine], which IC50 is on record?
A: > 20000 nM

Q: For COC(=O)CCCn1c(C)nc2nc(Cl)nc(Cl)c21 [Compound 116, methyl 4-(2,6-dichloro-8-methyl-7H-purin-7-yl)butanoate], which IC50 is on record?
A: 5000 to 10000 nM

Q: Which IC50 does the source give for COC(=O)CCCn1c(C)nc2nc(Cl)nc(S(=O)(=O)C(C)C)c21 [Compound 118, methyl 4-(2-chloro-6-(isopropylsulfonyl)-8-methyl-7H-purin-7-yl)butanoate] here?
A: 1000 to 5000 nM

Q: CCCCCCCCCCCCCCCCn1c(CO)nc2nc(Cl)nc(Cl)c21 [Compound 119, (2,6-dichloro-7-hexadecyl-7H-purin-8-yl)methanol] was tested. Which IC50 did it give?
A: 1 to 1000 nM

Q: COC(=O)CCCCn1c(C)nc2nc(Cl)nc(S(=O)(=O)C(C)C)c21 [Compound 121, methyl 5-(2-chloro-6-(isopropylsulfonyl)-8-methyl-7H-purin-7-yl)pentanoate] was tested. Which IC50 did it give?
A: 1000 to 5000 nM

Q: How did the IC50 turn out when CCCCCCCCCCCCCCCCn1c(CO)nc2nc(Cl)nc(S(=O)(=O)C(C)C)c21 [Compound 122, (2-chloro-7-hexadecyl-6-(isopropylsulfonyl)-7H-purin-8-yl)methanol] was run?
A: 1 to 1000 nM

Q: Which IC50 does the source give for COC(=O)CCCCCCCCCn1c(C)nc2nc(Cl)nc(Cl)c21 [Compound 123, Methyl 10-(2,6-dichloro-8-methyl-7H-purin-7-yl)decanoate] here?
A: 1000 to 5000 nM

Q: Which IC50 does the source give for COC(=O)CCCCCCCCCn1c(C)nc2nc(Cl)nc([S+]([O-])C(C)C)c21 (stereo not drawn) [Compound 124, methyl 10-(2-chloro-6-(isopropylsulfinyl)-8-methyl-7H-purin-7-yl)decanoate] here?
A: 1 to 1000 nM

Q: COC(=O)CCCCCCCCCn1c(C)nc2nc(Cl)nc(S(=O)(=O)C(C)C)c21 [Compound 125, Methyl 10-(2-chloro-6-(isopropylsulfonyl)-8-methyl-7H-purin-7-yl)decanoate] was tested. Which IC50 did it give?
A: 1000 to 5000 nM

Q: COC(=O)CCCCCCCCCCCCCCCn1c(C)nc2nc(C#N)nc(C#N)c21 [Compound 126, Methyl 16-(2,6-dicyano-8-methyl-7H-purin-7-yl)hexadecanoate] was tested. Which IC50 did it give?
A: > 20000 nM

Q: How did the IC50 turn out when Cc1nc2nc(Cl)nc([S+]([O-])C(C)C)c2n1CCCCCCCCCC[N+]1([O-])CCOCC1 (stereo not drawn) [Compound 127, 4-(10-(2-chloro-6-(isopropylsulfinyl)-8-methyl-7H-purin-7-yl)decyl)morpholine 4-oxide] was run?
A: > 20000 nM

Q: How did the IC50 turn out when COC(=O)CCCCCCCCCCCCCCCn1c(C)nc2nc(Cl)nc([S+]([O-])C(C)C)c21 (stereo not drawn) [Compound 128, methyl 16-(2-chloro-6-(isopropylsulfinyl)-8-methyl-7H-purin-7-yl)hexadecanoate] was run?
A: 1 to 1000 nM

Q: Cc1nc2nc(Cl)nc(SC(C)C)c2n1CCCCCCCCCC[N+]1([O-])CCOCC1 [Compound 129, 4-(10-(2-chloro-6-(isopropylthio)-8-methyl-7H-purin-7-yl)decyl)morpholine 4-oxide] was tested. Which IC50 did it give?
A: > 20000 nM

Q: With COC(=O)CCCCCO[C@@H]1CCN(CCCCCCn2c(C)nc3nc(Cl)nc(Cl)c32)C1 [Compound 130] as the compound, how does the IC50 read?
A: 1 to 1000 nM

Q: With CNC(=O)CCCCCCCCCCCCCCCn1c(C)nc2nc(Cl)nc(S(=O)(=O)C(C)C)c21 [Compound 131, 16-(2-chloro-6-(isopropylsulfonyl)-8-methyl-7H-purin-7-yl)-N-methylhexadecaanamide] as the compound, how does the IC50 read?
A: 1 to 1000 nM

Q: Which IC50 does the source give for Cc1nc2nc(Cl)nc(S(=O)(=O)C(C)C)c2n1CCCCCCCCCCCCCCCC(=O)OC[C@H]1COC(C)(C)O1 [Compound 132, (R)-(2,2-dimethyl-1,3-dioxolan-4-yl)methyl 16-(2-chloro-6-(isopropylsulfonyl)-8-methyl-7H-purin-7-yl)hexadecanoate] here?
A: 1 to 1000 nM

Q: For Cc1nc2nc(Cl)nc(S(=O)(=O)C(C)C)c2n1CCCCCCCCCCCCCCCC(=O)OC[C@H](O)CO [Compound 133, (R)-2,3-dihydroxypropyl 16-(2-chloro-6-(isopropylsulfonyl)-8-methyl-7H-purin-7-yl)hexadecanoate], which IC50 is on record?
A: 1000 to 5000 nM

Q: With Cc1nc2nc(Cl)nc(S(=O)(=O)C(C)C)c2n1CCCCCCCCCCCCCCCC(=O)OC[C@@H]1COC(C)(C)O1 [Compound 134, (S)-(2,2-dimethyl-1,3-dioxolan-4-yl)methyl 16-(2-chloro-6-(isopropylsulfonyl)-8-methyl-7H-purin-7-yl)hexadecanoate] as the compound, how does the IC50 read?
A: 1 to 1000 nM

Q: Which IC50 does the source give for Cc1nc2nc(Cl)nc(S(=O)(=O)C(C)C)c2n1CCCCCCCCCCCCCCCC(=O)OC[C@@H](O)CO [Compound 135, (S)-2,3-dihydroxypropyl 16-(2-chloro-6-(isopropylsulfonyl)-8-methyl-7H-purin-7-yl)hexadecanoate] here?
A: 1 to 1000 nM

Q: For Cc1nc2nc(Cl)nc([S+]([O-])C(C)C)c2n1CCCCCCCCCCN1CCOCC1 (stereo not drawn) [Compound 136, 4-(10-(2-chloro-6-(isopropylsulfinyl)-8-methyl-7H-purin-7-yl)decyl)morpholine], which IC50 is on record?
A: 1 to 1000 nM
